Reference: patent US7741294B1, “Non-standard nucleobases implementing the isocytidine and isoguanosine hydrogen bonding patterns” (priority 2005, dated 2010)
Where two headings read alike, the source gives them in different places.

How the values were obtained:
[1] = keto:enol tautomeric equilibrium from UV spectra in dioxane:water mixtures, extrapolated to pure water; type: physicochemical; settings: log fraction of enol vs ET(30), extrapolated to ET(30) of pure water (63.1)
Excerpt: The procedure of Voegel et al. [Voegel, J. J., von Krosigk, U., Benner, S. A. (1993) J. Org. Chem., 58, 7542-7547.] was then used to estimate a value of the keto:enol tautomers in pure water for dC7 isoG. This procedure exploits the fact that in nonpolar solvents, the UV spectra for both disoG and C7 isoG shift from their form in pure water (which resembles the N-methylated derivatives) to a form that resembles the UV spectra of the O-methylated derivatives. This is interpreted as evidence that the tautomeric equilibrium shifts from one favoring the keto tautomer in pure water to one favoring the enol tautomer in pure dioxane.
To obtain quantitative data, the ratio of the extinction coefficients at two wavelengths (λ=296 and 255 nm for disoG and λ=305 and 254 nm for dC7 isoG), chosen to maximize the difference between the keto and enol forms, was chosen as a metric for the tautomeric equilibrium constant in dioxane:water mixtures in varying proportions. This was plotted against the Dimroth ET(30) value, which provides a measure of the local dielectric constant [Kosower, E. M. (1958) J. Am. Chem. Soc., 80, 3253-3260] [Dimroth, v. K., Reichardt, C., Siepmann, T., Bohlmann, F. (1963) Liebigs Ann. Chem., 661, 1-37.] [Reichardt, C., Harbusch-Goernert, E. (1983) Liebigs Ann. Chem., 721-743] [Gordon, A., Katritzky, A. R. (1968) Tetrahedron Lett., 23, 2767-2770.] […]

[2] = pKa by spectrophotometric titration; type: physicochemical; settings: pH 2.8 to 13.7, 240-350 nm
Procedure: The pKa of the nucleoside analog was determined by spectrophotometric titration (pH 2.8 to 13.7) [Kazimierczuk, Z., Shugar, D. (1974) Acta Biochim. Pol., 21, 455-463.1 at 240-350 nm to give values for pK1 and pK2 as 4.3 (±0.1) and 9.9 (±0.2), respectively.

[3] = comparison value for the natural nucleoside; cited from earlier work

| KTAUT (=[keto]/[enol]) [1] | pK1 [2] | pK2 [2] | Structure (SMILES) | KTAUT (=[keto]/[enol]) [3] |
| --- | --- | --- | --- | --- |
| ≈ 10^3 | 4.3 (±0.1) | 9.9 (±0.2) | Nc1[nH]c(=O)nc2c1ccn2[C@H]1C[C@H](O)[C@@H](CO)O1 [dC7 isoG, 2′-deoxy-7-deaza-isoguanosine] |  |
|  |  |  | Nc1nc2c(ncn2[C@@H]2O[C@H](CO)[C@@H](O)[C@H]2O)c(=O)[nH]1 [guanosine] | 10^4-10^5 |
